Where two headings read alike, the source gives them in different places.

Consider 19 molecules from publication PMC6112376, “Comprehensive Analyses and Prioritization of Tox21 10K Chemicals Affecting Mitochondrial Function by in-Depth Mechanistic Studies” (Environmental Health Perspectives, 2018).

Data set [1] concerns HepG2 cells. Put plainly: cells. The following applies: Homo sapiens; for IC50: HepG2, read-out: MMP assays IC50 (µM) HepG2; for Emax: HepG2, read-out: MMP assays efficacy (%) HepG2.
The subject of data set [2] is HepG2 cells. The following applies: cited from earlier work.
In data set [3] the test system is rat primary hepatocytes.
The test system of data set [4] is rat primary hepatocytes. Put plainly: MMP assay in rat primary hepatocytes. The following applies: for IC50: Rattus norvegicus, Hepatocyte, read-out: MMP assays IC50 (µM) Rat Hepatocytes.
Where [5] appears, read: read-out: MMP assays IC50 (µM) qHTS-HepG2.
[6] abbreviates: read-out: MMP assays IC50 (µM), qHTS-HepG2.

Consider `Nc1ccccc1N` [1,2-Phenylenediamine], for which the IC50 (as a rule, the midpoint of a concentration-inhibition curve) is 2.51 µM with HepG2 cells [1], 3.9 ± 3.61 µM in the data set with HepG2 cells [2] (setting [5]) and 17.9 ± 6.5 µM with rat primary hepatocytes [4]. Further, in the data set with HepG2 cells [1], the Emax worked out at 87%. Moreover, in the data set on HepG2 cells [2], the “MMP assays efficacy (%) qHTS-HepG2” value is recorded as -96±16%. Also, the “MMP assays efficacy (%) Rat Hepatocytes” value with rat primary hepatocytes [3] is listed as -41±14%.
Regarding `O=S(=O)(c1ccc(Cl)cc1)c1ccc(Cl)cc1` [4,4'-Dichlorodiphenyl sulfone], the IC50 was 35.5 µM in the data set on HepG2 cells [1], 21.3 ± 6.06 µM with HepG2 cells [2] (setting [5]) and 29.9 ± 2.43 µM with rat primary hepatocytes [4]. Further, in the data set on HepG2 cells [1], the Emax worked out at 96%. In addition, the “MMP assays efficacy (%) qHTS-HepG2” value in the data set with HepG2 cells [2] is -99±22%. Besides, in the data set on rat primary hepatocytes [3], the “MMP assays efficacy (%) Rat Hepatocytes” value is -72±26%.
Regarding `ClC1=C(Cl)C2(Cl)C3C4CC(C5OC45)C3C1(Cl)C2(Cl)Cl` (stereo not drawn) [Endrin], in the data set on HepG2 cells [1], the IC50 was determined as 21.8 µM and the Emax was 55%. In addition, in the data set on HepG2 cells [2], the “MMP assays efficacy (%) qHTS-HepG2” value is -75±20%. The IC50 in the data set on HepG2 cells [2] (setting [5]) is 23.5 ± 7.96 µM. The “MMP assays efficacy (%) Rat Hepatocytes” value with rat primary hepatocytes [3] is “inactive”. Also, the “MMP assays IC50 (µM) Rat Hepatocytes” value in the data set on rat primary hepatocytes [4] is “inactive”.
As for `CN(C)c1ccc2nc3ccc(=[N+](C)C)cc-3sc2c1` [Methylene blue], the concentration for half-maximal inhibition (IC50) with HepG2 cells [1] was 2.75 µM; in the data set with HepG2 cells [2] (setting [6]) it was 2.88 ± 1.33 µM. The Emax with HepG2 cells [1] was 89%. The “MMP assays efficacy (%) qHTS-HepG2” value in the data set with HepG2 cells [2] was -78±9%. The “MMP assays efficacy (%) Rat Hepatocytes” value in the data set with rat primary hepatocytes [3] was “inactive”. The “MMP assays IC50 (µM) Rat Hepatocytes” value in the data set with rat primary hepatocytes [4] was “inactive”.
Take `ClC1=C(Cl)C2(Cl)C(CBr)CC1(Cl)C2(Cl)Cl` (stereo not drawn) [Bromociclen]: in the data set with HepG2 cells [1], the IC50 came out at 15.5 µM and the Emax worked out at 47%. Also, the “MMP assays efficacy (%) qHTS-HepG2” value with HepG2 cells [2] is given as -87±13%. In addition, the IC50 in the data set with HepG2 cells [2] (setting [5]) was 33.2 ± 3.47 µM. In the data set on rat primary hepatocytes [3], the “MMP assays efficacy (%) Rat Hepatocytes” value was “inactive”. Further, in the data set with rat primary hepatocytes [4], the “MMP assays IC50 (µM) Rat Hepatocytes” value was “inactive”.
`CS(=O)(=O)Nc1ccc([N+](=O)[O-])cc1Oc1ccccc1` [Nimesulide]: the 50% inhibitory concentration (IC50) in the data set with HepG2 cells [1] was 4.16 µM; with HepG2 cells [2] (setting [6]), 3.87 ± 0.23 µM; with rat primary hepatocytes [4] it was 2.74 ± 0.35 µM. In the data set on HepG2 cells [1], the Emax was found to be 120%. For the same molecule, the “MMP assays efficacy (%) qHTS-HepG2” value in the data set with HepG2 cells [2] is on record as -101±6%. For the same molecule, the “MMP assays efficacy (%) Rat Hepatocytes” value with rat primary hepatocytes [3] was -117±42%.
As for `O=[N+]([O-])c1ccc2c3c(cccc13)CC2` [Compound 5-Nitroacenaphthene], the IC50 in the data set on HepG2 cells [1] was 56.2 µM; in the data set on HepG2 cells [2] (setting [5]), 34.4 ± 20.4 µM; with rat primary hepatocytes [4] it was 24 ± 16.2 µM. The Emax in the data set on HepG2 cells [1] was found to be 50%. In addition, in the data set on HepG2 cells [2], the “MMP assays efficacy (%) qHTS-HepG2” value is recorded as -82±23%. Also, the “MMP assays efficacy (%) Rat Hepatocytes” value with rat primary hepatocytes [3] is on record as -78±25%.
As for `Brc1ccc(Oc2ccc(Br)cc2Br)c(Br)c1` [2,2'4,4'-Tetrabromodiphenyl ether], the IC50 in the data set with HepG2 cells [1] is 39.8 µM; in the data set with HepG2 cells [2] (setting [5]), 22.6 ± 5.18 µM; in the data set on rat primary hepatocytes [4], 25.6 ± 34.7 µM. In addition, the Emax in the data set with HepG2 cells [1] was 104%. For the same molecule, the “MMP assays efficacy (%) qHTS-HepG2” value in the data set with HepG2 cells [2] was -119±10%. Moreover, in the data set on rat primary hepatocytes [3], the “MMP assays efficacy (%) Rat Hepatocytes” value was -42±10%.
For the molecule `CO[C@H]1[C@@H](O)C[C@H](O[C@H]2[C@@H](O)C[C@H](O[C@H]3[C@@H](O)C[C@H](O[C@H]4CC[C@@]5(C)[C@H](CC[C@@H]6[C@@H]5C[C@@H](O)[C@]5(C)[C@@H](C7=CC(=O)OC7)CC[C@]65O)C4)O[C@@H]3C)O[C@@H]2C)O[C@@H]1C` [Methyldigoxin], the IC50 was 0.24 µM in the data set with HepG2 cells [1] and 0.73 ± 0.09 µM in the data set with HepG2 cells [2] (setting [6]). Besides, in the data set on HepG2 cells [1], the Emax was found to be 99%. Further, the “MMP assays efficacy (%) qHTS-HepG2” value with HepG2 cells [2] is reported as -71±5%. Besides, the “MMP assays efficacy (%) Rat Hepatocytes” value in the data set on rat primary hepatocytes [3] is “inactive”. Further, in the data set with rat primary hepatocytes [4], the “MMP assays IC50 (µM) Rat Hepatocytes” value is “inactive”.
With `CC(C)OC(=O)C(O)(c1ccc(Cl)cc1)c1ccc(Cl)cc1` [Chloropropylate], the IC50 is 44.7 µM in the data set with HepG2 cells [1], 26.3 ± 3.64 µM in the data set with HepG2 cells [2] (setting [5]) and 43.8 ± 10.9 µM in the data set with rat primary hepatocytes [4]. Also, the Emax in the data set with HepG2 cells [1] is 102%. In addition, the “MMP assays efficacy (%) qHTS-HepG2” value with HepG2 cells [2] is -105±14%. The “MMP assays efficacy (%) Rat Hepatocytes” value with rat primary hepatocytes [3] is -66±32%.
`O=[N+]([O-])c1ccc(O/N=C/c2cc(Br)c(O)c(Br)c2)c([N+](=O)[O-])c1` [Bromofenoxim]: the results for the IC50 in the data set on HepG2 cells [1], in the data set on HepG2 cells [2] (setting [5]) and with rat primary hepatocytes [4] were 3.98 µM, 1.08 ± 0.25 µM and 2.18 ± 0.86 µM, respectively. Moreover, in the data set on HepG2 cells [1], the Emax amounted to 100%. In the data set on HepG2 cells [2], the “MMP assays efficacy (%) qHTS-HepG2” value is listed as -108±7%. Besides, the “MMP assays efficacy (%) Rat Hepatocytes” value with rat primary hepatocytes [3] is on record as -114±9%.
With `Cc1ccc2cc3c(ccc4ccccc43)c3c2c1CC3` [Compound 3-Methylcholanthrene], in the data set on HepG2 cells [1], the 50% inhibitory concentration (IC50) is 25.2 µM and the Emax was 66%. Also, the “MMP assays efficacy (%) qHTS-HepG2” value in the data set with HepG2 cells [2] is recorded as -74±19%. Also, the half-inhibitory concentration (IC50) with HepG2 cells [2] (setting [5]) was 17.3 ± 13.2 µM. Moreover, the “MMP assays efficacy (%) Rat Hepatocytes” value in the data set with rat primary hepatocytes [3] is “inactive”. For the same molecule, the “MMP assays IC50 (µM) Rat Hepatocytes” value with rat primary hepatocytes [4] is “inactive”.
Turning to `O=S(=O)(Oc1ccc(Cl)cc1)c1ccc(Cl)cc1` [Chlorfenson], the values for the IC50 in the data set on HepG2 cells [1], with HepG2 cells [2] (setting [5]) and with rat primary hepatocytes [4] were 44.7 µM, 38.8 ± 25.4 µM and 23.7 ± 17.2 µM, respectively. Further, in the data set on HepG2 cells [1], the Emax amounted to 88%. The “MMP assays efficacy (%) qHTS-HepG2” value with HepG2 cells [2] is given as -94±17%. In addition, the “MMP assays efficacy (%) Rat Hepatocytes” value in the data set with rat primary hepatocytes [3] is listed as -62±24%.
`CC(=O)C(Cl)(Cl)Cl` [1,1,1-Trichloropropanone]: the IC50 with HepG2 cells [1] is 3.16 µM; in the data set with HepG2 cells [2] (setting [5]), 1.22 ± 0.56 µM; with rat primary hepatocytes [4], 23.7 ± 29.6 µM. In the data set on HepG2 cells [1], the Emax stood at 123%. In addition, in the data set with HepG2 cells [2], the “MMP assays efficacy (%) qHTS-HepG2” value was -93±13%. In the data set with rat primary hepatocytes [3], the “MMP assays efficacy (%) Rat Hepatocytes” value is -42±17%.
Take `C=CC[C@]1(O)CC[C@H]2[C@@H]3CCC4=CCCC[C@@H]4[C@H]3CC[C@@]21C` [Allylestrenol]: the concentration for half-maximal inhibition (IC50) with HepG2 cells [1] was 31.6 µM; in the data set on HepG2 cells [2] (setting [5]) it was 12.8 ± 3.68 µM. In addition, the Emax in the data set with HepG2 cells [1] amounted to 97%. For the same molecule, the “MMP assays efficacy (%) qHTS-HepG2” value with HepG2 cells [2] is reported as -52±13%. For the same molecule, the “MMP assays efficacy (%) Rat Hepatocytes” value with rat primary hepatocytes [3] is “inactive”. Besides, the “MMP assays IC50 (µM) Rat Hepatocytes” value in the data set with rat primary hepatocytes [4] was “inactive”.
For `CN(C)c1ccc(C(=C2C=CC(=[N+](C)C)C=C2)c2ccc(N(C)C)cc2)cc1` [Gentian violet], the concentration for half-maximal inhibition (IC50) is 0.35 µM in the data set with HepG2 cells [1], 0.08 ± 0.04 µM with HepG2 cells [2] (setting [6]) and 1.34 ± 0.11 µM in the data set with rat primary hepatocytes [4]. Further, the Emax in the data set on HepG2 cells [1] is 92%. For the same molecule, the “MMP assays efficacy (%) qHTS-HepG2” value with HepG2 cells [2] is on record as -92±4%. Moreover, the “MMP assays efficacy (%) Rat Hepatocytes” value in the data set with rat primary hepatocytes [3] was -70±14%.
`COc1cc(/C=C/C(=O)CC(=O)/C=C/c2ccc(O)c(OC)c2)ccc1O` [Curcumin]: the IC50 in the data set with HepG2 cells [1] is 2.51 µM; with HepG2 cells [2] (setting [5]) it was 1.31 ± 1.03 µM; in the data set on rat primary hepatocytes [4] it was 11.6 ± 9.87 µM. The Emax with HepG2 cells [1] was determined as 96%. In the data set with HepG2 cells [2], the “MMP assays efficacy (%) qHTS-HepG2” value is on record as -103±16%. Also, the “MMP assays efficacy (%) Rat Hepatocytes” value in the data set on rat primary hepatocytes [3] is on record as -116±37%.
For the molecule `Oc1cccc2ccccc12` [Compound 1-Naphthol], the IC50 with HepG2 cells [1] is 31.6 µM; with HepG2 cells [2] (setting [5]), 31 ± 5.96 µM. The Emax in the data set on HepG2 cells [1] was found to be 107%. Further, in the data set with HepG2 cells [2], the “MMP assays efficacy (%) qHTS-HepG2” value was -104±5%. In addition, the “MMP assays efficacy (%) Rat Hepatocytes” value with rat primary hepatocytes [3] is “inactive”. The “MMP assays IC50 (µM) Rat Hepatocytes” value in the data set on rat primary hepatocytes [4] was “inactive”.
As for `O=C1CN(/N=C/c2ccc(-c3ccc([N+](=O)[O-])cc3)o2)C(O)=N1` [Dantrolene sodium], the IC50 in the data set with HepG2 cells [1] was 3.46 µM; in the data set on HepG2 cells [2] (setting [5]) it was 4.35 ± 1.73 µM; with rat primary hepatocytes [4], 15.5 ± 1.78 µM. In addition, in the data set on HepG2 cells [1], the Emax was 73%. For the same molecule, the “MMP assays efficacy (%) qHTS-HepG2” value in the data set on HepG2 cells [2] is recorded as -85±8%. Also, in the data set on rat primary hepatocytes [3], the “MMP assays efficacy (%) Rat Hepatocytes” value is reported as -108±32%.
